36 compounds from US11274090B2, “P300/CBP HAT inhibitors” (Constellation Pharmaceuticals, Inc., priority 2018, dated 2022) can be followed below.

In assay [1] the target is p300 HAT domain (residues 1287-1666) (Homo sapiens (Human), UniProt Q09472). The experiment in a line: p300 HAT SPA assay (scintillation proximity assay, acetylation of biotinylated H3(1-21) peptide). It is filed as biochemical. The following applies: average of at least 2 replicate titrations. A digest of the protocol:
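Scintillation proximity readout of acetylated biotin-H3(1-21) captured on streptavidin plates after 1.5 hr at RT; enzyme was Ni2+/anion-exchange-purified HAT domain in 20 mM Hepes pH 7.5. Inhibitor IC50s calculated from the data.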

The test system of assay [2] is acetylation of chromatin at H3K18 (p300 and CBP) in HCT-116 cells. Briefly: H3K18Ac MSD cellular assay. It is filed as cell-based. The note with it: 2 hr treatment. The procedure:
Select compounds were also evaluated in a H3K18Ac MSD cellular assay that measures the ability of compounds to inhibit the acetylation of chromatin at H3K18, a process catalyzed by p300 and CBP. In a typical experiment the p300 HAT inhibitory activity inside cells of the compounds described herein was determined in accordance with the following experimental method. 20 k HCT-116 cells per well are plated in 75 μL RPMI+10% FBS media the night before treatment. Compounds plated in DMSO at 4× final concentration are resuspended in 30 μL RPMI+10% FBS, then 25 μL is combined with corresponding wells containing cells. Treated cells are incubated for 2 hr at 37° C., then lysed in 500 μL final volume and frozen at −80° C. MSD plates (Meso Scale Discovery) are coated overnight at 4° C. with 60 μL 1:500 α-total histone antibody (Millipore MAB3422) in PBS. Plates are then blocked with 5% BSA in TBST shaking at RT for 1 hr, washed, and 30 μL lysate added to each well for 2 hr shaking at RT. Plates are washed and 25 μL 1:216 α-H3K18ac antibody (CST 9675) in PBS added, then incubated for 1 hr shaking at RT. Plates are washed again, then 25 μL 1:1000 Sulfo-Tag goat α-rabbit antibody (Meso Scale Discovery R32Ab-1) in PBS is added for 1 hr shaking at RT. Plates are washed once more, then 150 μL 1× Read Buffer (MSD #R92TD-3) is added to all wells and read on MSD SECTOR Imager 2400 using the conventional read setup.

The next assay addresses full length p300 (Homo sapiens (Human), UniProt Q09472). Briefly: full length p300 SPA assay. In kind it is biochemical. The note with it: average of at least 2 replicate titrations, read-out: FL P300 IC50. The procedure: Reactions were initiated with 12.5 μL 2 μM biotinylated H3(1-21) peptide (New England Peptide) and run for 1 hr at RT, then quenched with 20 μL stop solution (200 mM Tris pH 8.0, 200 mM EDTA, 2M NaCl, 160 μM anacardic acid). 35 μL of the reaction volume was transferred to a 384-well streptavidin FlashPlate (PerkinElmer) using a Bravo liquid handler (Velocity 11) and incubated for 1.5 hr at RT. Plates were aspirated, washed with 95 μL wash buffer (15 mM Tris pH 8.5, 0.069 μM Brij-35), aspirated, sealed, and scintillation counts read on a Topcount (PerkinElmer). Data were analyzed in Genedata to determine inhibitor IC50 values.
The full length p300 SPA assay was run following the same protocol as p300 HAT SPA assay, but used 6 nM purified full length p300 (purchased from Active Motif) in place of the purified p300-HAT domain.

full length p300, sequence (Q09472 whole entry): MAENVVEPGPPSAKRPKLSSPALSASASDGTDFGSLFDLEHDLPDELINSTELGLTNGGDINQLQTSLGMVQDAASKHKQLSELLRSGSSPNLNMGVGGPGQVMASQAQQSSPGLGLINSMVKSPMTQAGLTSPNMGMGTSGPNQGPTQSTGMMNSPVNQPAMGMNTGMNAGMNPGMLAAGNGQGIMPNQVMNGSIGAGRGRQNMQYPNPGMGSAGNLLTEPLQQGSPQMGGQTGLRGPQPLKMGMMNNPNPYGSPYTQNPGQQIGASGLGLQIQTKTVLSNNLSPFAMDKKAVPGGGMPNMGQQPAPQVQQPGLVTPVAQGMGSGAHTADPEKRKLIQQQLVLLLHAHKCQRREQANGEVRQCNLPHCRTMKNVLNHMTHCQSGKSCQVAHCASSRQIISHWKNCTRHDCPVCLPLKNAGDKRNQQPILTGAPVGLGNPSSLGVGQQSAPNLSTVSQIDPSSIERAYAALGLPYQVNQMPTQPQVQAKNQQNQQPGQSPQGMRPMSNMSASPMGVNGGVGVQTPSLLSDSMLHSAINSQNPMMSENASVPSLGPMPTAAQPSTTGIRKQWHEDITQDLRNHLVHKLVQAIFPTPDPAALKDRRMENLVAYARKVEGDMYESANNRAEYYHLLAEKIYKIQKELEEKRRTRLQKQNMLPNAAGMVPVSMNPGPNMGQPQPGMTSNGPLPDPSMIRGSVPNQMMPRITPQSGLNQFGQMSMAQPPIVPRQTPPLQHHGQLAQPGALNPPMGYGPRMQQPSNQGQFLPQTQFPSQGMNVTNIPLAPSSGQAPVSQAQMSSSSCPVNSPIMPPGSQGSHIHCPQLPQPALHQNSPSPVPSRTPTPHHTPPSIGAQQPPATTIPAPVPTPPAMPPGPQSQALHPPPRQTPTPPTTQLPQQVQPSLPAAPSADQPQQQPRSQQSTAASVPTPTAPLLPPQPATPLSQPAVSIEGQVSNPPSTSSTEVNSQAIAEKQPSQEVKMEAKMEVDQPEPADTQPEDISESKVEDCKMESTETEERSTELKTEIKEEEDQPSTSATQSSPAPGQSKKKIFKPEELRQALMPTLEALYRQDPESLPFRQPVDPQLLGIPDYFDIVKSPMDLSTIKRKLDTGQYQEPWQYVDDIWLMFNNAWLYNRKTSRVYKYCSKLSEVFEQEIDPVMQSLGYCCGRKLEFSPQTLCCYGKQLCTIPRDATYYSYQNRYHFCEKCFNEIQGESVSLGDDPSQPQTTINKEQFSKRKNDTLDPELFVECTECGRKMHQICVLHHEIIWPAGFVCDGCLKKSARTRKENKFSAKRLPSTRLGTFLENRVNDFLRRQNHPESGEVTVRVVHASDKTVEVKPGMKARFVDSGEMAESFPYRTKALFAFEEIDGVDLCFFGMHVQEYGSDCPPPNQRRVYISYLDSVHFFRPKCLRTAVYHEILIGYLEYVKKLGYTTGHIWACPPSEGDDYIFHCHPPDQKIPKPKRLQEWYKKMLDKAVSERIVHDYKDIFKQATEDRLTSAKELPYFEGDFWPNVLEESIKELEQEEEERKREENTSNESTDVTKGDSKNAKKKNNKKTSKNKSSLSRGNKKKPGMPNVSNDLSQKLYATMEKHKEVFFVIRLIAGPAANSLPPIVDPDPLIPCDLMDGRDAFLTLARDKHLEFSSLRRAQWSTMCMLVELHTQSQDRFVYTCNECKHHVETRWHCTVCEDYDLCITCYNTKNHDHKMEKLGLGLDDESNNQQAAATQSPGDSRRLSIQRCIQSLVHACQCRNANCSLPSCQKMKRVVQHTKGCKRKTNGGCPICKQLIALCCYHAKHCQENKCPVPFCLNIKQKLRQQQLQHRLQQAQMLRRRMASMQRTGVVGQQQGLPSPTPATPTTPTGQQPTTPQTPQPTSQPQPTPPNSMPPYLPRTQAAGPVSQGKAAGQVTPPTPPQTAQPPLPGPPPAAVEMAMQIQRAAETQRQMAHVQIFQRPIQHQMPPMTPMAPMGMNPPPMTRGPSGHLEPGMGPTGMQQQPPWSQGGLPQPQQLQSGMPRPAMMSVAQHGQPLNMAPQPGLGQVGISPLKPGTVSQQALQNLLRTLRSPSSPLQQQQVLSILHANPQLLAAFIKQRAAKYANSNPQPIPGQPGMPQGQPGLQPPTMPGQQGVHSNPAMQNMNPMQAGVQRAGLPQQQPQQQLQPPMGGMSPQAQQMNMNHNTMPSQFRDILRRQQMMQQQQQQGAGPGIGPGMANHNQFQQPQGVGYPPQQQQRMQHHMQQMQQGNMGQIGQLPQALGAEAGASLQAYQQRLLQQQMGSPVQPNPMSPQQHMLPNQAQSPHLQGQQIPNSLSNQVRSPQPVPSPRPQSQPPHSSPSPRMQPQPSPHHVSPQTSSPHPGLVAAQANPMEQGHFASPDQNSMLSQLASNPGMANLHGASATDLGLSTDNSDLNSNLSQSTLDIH
p300 HAT domain (residues 1287-1666), sequence (Q09472 1287-1666): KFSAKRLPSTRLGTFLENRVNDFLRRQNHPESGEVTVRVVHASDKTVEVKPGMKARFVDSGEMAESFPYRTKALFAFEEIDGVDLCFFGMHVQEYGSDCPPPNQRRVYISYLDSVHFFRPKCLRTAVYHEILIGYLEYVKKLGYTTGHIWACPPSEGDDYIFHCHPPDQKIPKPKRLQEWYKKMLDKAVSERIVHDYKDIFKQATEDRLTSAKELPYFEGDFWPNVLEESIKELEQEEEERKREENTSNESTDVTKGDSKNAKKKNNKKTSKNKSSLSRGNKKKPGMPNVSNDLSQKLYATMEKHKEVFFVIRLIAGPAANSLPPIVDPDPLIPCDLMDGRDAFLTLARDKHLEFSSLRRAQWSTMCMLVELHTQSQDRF

In the case of `CC(CNC(C(=O)Nc1ccc(-c2cnn(C)c2)cc1)c1ccccc1)c1ccc(Cl)cc1` (single isomer, unassigned) [2 Isomer 2], 119 nM corresponded to half-maximal inhibition in assay [1] (IC50). It took 324 nM to reach a half-maximal effect in assay [2] (Homo sapiens) (EC50).

For `N#Cc1ccc(CCNC(C(=O)Nc2ccc(-c3cccnn3)cc2)c2ccccc2)cc1` (single isomer, unassigned) [12 Isomer 2], in assay [1], the IC50 (commonly the concentration needed to halve the response being measured) came to 479 nM. In addition, the EC50 (as a rule, the concentration needed to bring the measured effect to its halfway point) in assay [2] (Homo sapiens) turned out to be 1800 nM.

The compound `Cn1ccc(-c2ccc(NC(=O)C(NCCc3ccc(C#N)cc3)c3ccccc3)nc2)n1` (single isomer, unassigned) [14 Isomer 2] registered an IC50 in assay [1] of 191 nM. Also, the response in assay [2] (Homo sapiens) was half-maximal at 479 nM (EC50).

In turn, `Cc1cn(-c2ccc(NC(=O)[C@@H](NCCc3ccc(Cl)cc3)c3ccccc3)cc2)cn1` (single isomer, unassigned) [16 Isomer 1] had an IC50 in assay [1] of 614 nM. This compound also gave a concentration for a half-maximal effect (EC50) in assay [2] (Homo sapiens) of 1130 nM.

`CN1CCN(c2ccc(NC(=O)[C@@H](NCCc3ccc(Cl)cc3)c3ccccc3)cc2)CC1` (single isomer, unassigned) [17 Isomer 1] came in with an IC50 in assay [1] of 655 nM. This compound had an EC50 in assay [2] (Homo sapiens) of 998 nM.

In assay [2], `Cn1cc(-c2ccc(NC(=O)C(NCCc3ccc(C#N)cc3)c3ccccc3)nc2)cn1` (single isomer, unassigned) [22 Isomer 1] came in with an EC50 of 24.6 nM.

Turning to `Cn1cc(-c2ccc(NC(=O)C(NCCc3ccc(C#N)cc3)c3ccccc3)nc2)cn1` (single isomer, unassigned) [22 Isomer 2], in assay [2], the response was half-maximal at 66.8 nM (EC50).

`Cn1cc(-c2ccc(NC(=O)C(NCCc3ccc(C#N)cc3)c3ccccc3)cc2Cl)cn1` (single isomer, unassigned) [27 Isomer 1] gave an IC50 in assay [1] of 576 nM. In addition, the EC50 in assay [2] (Homo sapiens) turned out to be 2020 nM.

`N#Cc1ccc(CCNC(C(=O)Nc2ccc(N3CCCC3)cn2)c2ccccc2)cc1` (single isomer, unassigned) [37 Isomer 1] displayed an IC50 in assay [1] of 65.4 nM. The same compound yielded an EC50 in assay [2] (Homo sapiens) of 118 nM.

`N#Cc1ccc(CCNC(C(=O)Nc2ccc(C3CC3)cn2)c2ccccc2)cc1` (single isomer, unassigned) [42 Isomer 1] registered an IC50 in assay [1] of 53.6 nM. The compound also displayed an EC50 in assay [2] (Homo sapiens) of 333 nM.

`CN1CCN(c2ccc(NC(=O)C(NCCc3ccc(C#N)cc3)c3ccccc3)nc2)CC1` (single isomer, unassigned) [49 Isomer 1]: 79.3 nM corresponded to half-maximal inhibition in assay [1] (IC50). Also, a half-maximal response in assay [2] (Homo sapiens) (EC50) required 48.4 nM.

Turning to `Cn1cc(-c2ccc(NC(=O)C(NCCc3ccc(C#N)cc3Cl)c3ccccc3)nc2)cn1` (single isomer, unassigned) [51 Isomer 1], in assay [1], the IC50 was 15 nM. The compound also displayed an EC50 in assay [2] (Homo sapiens) of 22.9 nM.

In turn, `Cn1cc(-c2ccc(NC(=O)C(NCCc3ccc(Cl)cc3)c3ccccc3)nc2)cn1` (single isomer, unassigned) [55 Isomer 1] showed an IC50 in assay [1] of 19 nM. In addition, a half-maximal response in assay [2] (Homo sapiens) (EC50) required 31.5 nM.

For the compound `Cc1cnn(-c2ccc(NC(=O)C(NCC(C)c3ccc(C#N)cc3)c3ccccc3)nc2)c1` (single isomer, unassigned) [62 Isomer 4], the IC50 is under 2 nM on full length p300 and 52.6 nM in assay [1].

In the case of `CS(=O)(=O)N1CCN(c2ccc(NC(=O)C(NCCc3ccc(C#N)cc3)c3ccccc3)nc2)CC1` (single isomer, unassigned) [68 Isomer 2], the IC50 is 1.9 nM on full length p300 and 70 nM in assay [1].

Turning to `CC(=O)N1CCN(c2ccc(NC(=O)C(NCCc3ccc(C#N)cc3)c3ccccc3)nc2)CC1` (single isomer, unassigned) [72 Isomer 1], the IC50 at full length p300 came to 4.13 nM; in assay [1], 85.2 nM.

As for `CC(=O)N1CCN(c2ccc(NC(=O)C(NCCc3ccc(C#N)cc3)c3ccccc3)nc2)CC1` (single isomer, unassigned) [72 Isomer 2], the IC50 on full length p300 was 46.9 nM; in assay [1] it was over 2000 nM.

Regarding `Cn1cc(-c2cnc(NC(=O)C(NCCc3ccc(C#N)cc3)c3ccccc3)cc2F)cn1` (single isomer, unassigned) [74 Isomer 1], the results for the IC50 (on full length p300; in assay [1]) were 214 nM and over 2000 nM, respectively.

With `Cn1cc(-c2cnc(NC(=O)C(NCCc3ccc(C#N)cc3)c3ccccc3)cc2F)cn1` (single isomer, unassigned) [74 Isomer 2], the IC50 at full length p300 came out at 5 nM; in assay [1], 146 nM.

Turning to `Cn1cc(-c2cnc(NC(=O)C(NCCc3ccc(C#N)cc3)c3ccccc3)c(F)c2)cn1` (single isomer, unassigned) [75 Isomer 1], the IC50 on full length p300 came out at 4.2 nM; in assay [1], 149 nM.

As for `Cn1cc(-c2cnc(NC(=O)C(NCCc3ccc(C#N)cc3)c3ccccc3)c(F)c2)cn1` (single isomer, unassigned) [75 Isomer 2], the IC50 at full length p300 was 387 nM; in assay [1] it was over 2000 nM.

In the case of `CC(CNC(C(=O)Nc1ccc(-c2cnn(C)c2)cn1)c1ccccc1)c1ccc(C#N)c(F)c1` (single isomer, unassigned) [91 Isomer 2], the IC50 at full length p300 came to 0.75 nM; in assay [1], 6.4 nM.

In the case of `CC(CNC(C(=O)Nc1ccc(-c2cnn(C)n2)cn1)c1ccccc1)c1ccc(C#N)cc1` (single isomer, unassigned) [98 Isomer 2], the IC50 at full length p300 was 1 nM; in assay [1], 6.59 nM.

On to `C[C@H](CNC(C(=O)Nc1ccc(-c2ccn(C)c(=O)c2)cn1)c1ccccc1)c1ccc(C#N)cc1` (single isomer, unassigned) [105 Isomer 2], for which the values for the IC50 (on full length p300; in assay [1]) were 0.7 nM and 16.4 nM, respectively.

Take `C[C@H](CNC(C(=O)Nc1ccc(C2CC(=O)N(C)C2)cn1)c1ccccc1)c1ccc(C#N)cc1` (single isomer, unassigned) [109 Isomer 4]: the IC50 on full length p300 is 3.3 nM; in assay [1] it was 26.1 nM.

As to `Cc1c(-c2ccc(NC(=O)C(NC[C@@H](C)c3ccc(C#N)cc3)c3ccccc3)nc2)cnn1C` (single isomer, unassigned) [114 Isomer 2], the IC50 at full length p300 is 0.73 nM; in assay [1], 10.5 nM.

As to `Cc1cc(NC(=O)C(NC[C@@H](C)c2ccc(C#N)cc2)c2ccccc2)ncc1-c1cnn(C)c1` (single isomer, unassigned) [115 Isomer 2], the results for the IC50 (on full length p300; in assay [1]) were 1.2 nM and 32.7 nM, respectively.

As to `Cn1cc(-c2cccc(NC(=O)C(NCCc3ccc(C#N)cc3)c3ccccc3)n2)cn1` (single isomer, unassigned) [123 Isomer 1], the IC50 at full length p300 was 2020 nM; in assay [1], over 2000 nM.

With `Cn1cc(-c2cccc(NC(=O)C(NCCc3ccc(C#N)cc3)c3ccccc3)n2)cn1` (single isomer, unassigned) [123 Isomer 2], the IC50 on full length p300 was 13500 nM; in assay [1] it was over 2000 nM.

As for `CC1CN(c2ccc(NC(=O)C(NC[C@@H](C)c3ccc(C#N)cc3)c3ccccc3)nc2)CC(=O)N1C` (single isomer, unassigned) [124 Isomer 1], the IC50 on full length p300 was found to be 1.78 nM; in assay [1], 11 nM.

Take `Cc1nn(C)c(C)c1-c1ccc(NC(=O)C(NC[C@@H](C)c2ccc(C#N)cc2)c2ccccc2)nc1` (single isomer, unassigned) [130 Isomer 2]: the figures for the IC50 (at full length p300; in assay [1]) were under 3.24 nM and 14 nM, respectively.

For `C[C@H](CNC(C(=O)Nc1ccc(-c2cnn(C)c(=O)c2)cn1)c1ccccc1)c1ccc(C#N)cc1` (single isomer, unassigned) [139 Isomer 1], the IC50 is under 3.24 nM on full length p300 and 26 nM in assay [1].

On to `Cn1cc(-c2ccc(NC(=O)C(NCC(c3ccc(C#N)cc3)C(F)(F)F)c3ccccc3)nc2)cn1` (single isomer, unassigned) [149 Isomer 2], for which the IC50 at full length p300 is under 3.24 nM; in assay [1], 19 nM.

On to `Cn1cc(-c2ccc3c(c2)CCN3C(=O)C(NCCc2ccc(C#N)cc2)c2ccccc2)cn1` (single isomer, unassigned) [152 Isomer 1], for which the values for the IC50 (on full length p300; in assay [1]) were 40.6 nM and 966 nM, respectively.

In the case of `Cn1cc(-c2ccc3c(c2)CCN3C(=O)C(NCCc2ccc(C#N)cc2)c2ccccc2)cn1` (single isomer, unassigned) [152 Isomer 2], the IC50 was under 2 nM on full length p300 and 31.8 nM in assay [1].

Take “(R, S)- and (S, S)-2-((2- (4- cyanophenyl)propyl)ami- no)-N-(5-(1,3-dimethyl- 1H-pyrazol-4-yl)pyridin- 2-yl)-2-phenylacetamide [113 Isomer 2]”: the IC50 at full length p300 is 0.74 nM; in assay [1], 10.2 nM.
